Laboratory results reported in patent US5830994A, “Peptide derivatives of alpha-MSH and their application” (Institut Europeen De Biologie Cellulaire, priority 1993, dated 1998).
“And” between values parts separate entries of the source, which are not always exact repeats. Identical values can stand only once. Like-named read-outs stand apart in the source and are kept apart here.

Columns and labels:
[1] = Protection of treated animals given a lethal dose of LPS; type: in vivo, mice
[2] = test system: embryonic cells (melanoblasts, neuroblasts, myoblasts, epidermal cells, fibroblasts, mesenchymatous cells); type: cell-based, Triton embryo and Axolotl embryo
Experimental: Qualitative and quantitative analysis of the effects of PIV on melanocyte differentiation in in vitro culture. Sample to be analyzed--compound 4=PIV Embryonic cells isolated in in vitro culture in a defined, purely saline medium (standard culture conditions: 2 ml of medium/culture). The embryonic territory is collected (from Triton embryo and from Axolotl embryo) from the first stage of melanogenesis, immediately after melanocyte induction. At this early stage of embryonic development, the neural swelling, which has just become individualized, contains all the melanoblastic precursors. The culture of the cells of the neural swelling and of the underlying mesoderm makes it possible to coculture (under completely identical conditions) the melanoblasts with various other cell precursors belonging to various categories: neuroblasts, myoblasts, epidermal cells, fibroplasts [sic], mesenchymatous cells. This allows a comparative kinetic study, on a living material, of the effects of PIV on the melanocytes and various other cell types. Duration of the culture (primary culture): 2 to 3 weeks at 20° C. The cell differentiation appears morphologically from the 3rd day and is practically complete at 8-10 days of culture. A series of PIV concentrations was analyzed: 0.01 μg/ml; 0.1 μg/ml; 1 μg/ml; and 10 μg/ml The following 2 doses were therefore selected for this work: 0.1 and 1 μg/ml. 1 single treatment during the innoculation of cultured cells. After their attachment (3 days at 20° C.), the medium is replaced with fresh medium without the Peptide PIV 1 treatment during the innoculation and a 2nd treatment during the change of medium. We developed two melanin assays: by HPLC with electrochemical detection by spectrophotometry (by adaptation of the method of TOMITA et al. 1990) at 470 nm. The development of these assays was carried out using standard solutions of melanin (Sigma, ref. M 8631) in order to define the comparative sensitivity and the minimum level of detection by either of the methods. The μg is the minimum level which can be assayed by spectrophotometry; the ng is the lower level which can be assayed by HPLC. It should however, be observed that these two techniques, especially the spectrophotometric assay, can be used since, for our cell cultures, 15 embryonic explants associated in culture are sufficient to allow quantification (by spectrophotometry).

TNF-α = test: Inhibition of TNF-α induced by LPS in mice (DAYNES technique), serum ELISA; type: in vivo
Experimental: This anti-inflammatory activity was complemented by a study of the immunosuppressive activity of PIV against Tumor Necrosis Factor-α.
Inhibition of the activity of TNF-α by the Peptide PIV
The DAYNES techniques described in Example 8 are used.
40 μg of PIV in 0.2 ml of physiological saline--that is to say 200 μg/ml
25 μg of PIV in 0.2 ml of physiological saline--that is to say 125 μg/ml
10 μg of PIV in 0.2 ml of physiological saline--that is to say 50 μg/ml
It was carried out on mice separated into 5 batches of 5 animals
The animals in the control batches receive an injection of 0.2 ml of physiological saline intravenously. The animals in the PIV batches receive an injection of the product at various dosages intravenously. (Caudal vein)
Immediately after the treatment of the mice, a sublethal dose of LPS (1.2 mg in 0.2 ml of physiological saline) is intraperitoneally injected into each animal in the batches and positive control.
Ninety minutes later, all the mice are punctured through the retroorbital sinuses on dry tubes. As soon as the blood coagulates, the clot is detached. The blood is centrifuged for 10 minutes at 10° C. at 1800 g.
The sera once collected are frozen at -25° C.
The TNF-α contained in these sera is assayed 24 hours after the sampling with the murine TNF-α ELISA assay Kit (ref. 1509-00 GENZYME)
Rapid description of the Kit: the method used for this assay is of the sandwich type.
A first anti-murine TNF-A monoclonal antibody is used.
The samples are then deposited and then a second anti-TNF-α goat antibody is caused to react.
The colored reaction uses o-phenylenediamine (OPD).
The reading is made at 492 nm with a plate reader (TITERTEK MKII MCC 340)

cultured embryonic cells = test: Effects of Peptides PI and PIV on cultured embryonic cells in vitro (melanocytes, neurons, muscular cells, fibroblasts); type: cell-based
Experimental: Effects of Peptides PI and PIV on cultured embryonic cells in vitro . . . "Melanocytes - Neurons - Muscular Cells and Fibroblasts . . . " dose used 1 μg/ml (defined by dose/response trials)
1 single treatment during the innoculation of the cells or several successive treatments (renewal of the medium every 48 hours) duration of culture: 6 to 8 days
1) Counting of the melanocytes
2) Assay of melanin by HPLC and/or by spectrophotometry
Daily observation of the cultures
Ultrastructure by transmission electron microscopy.

[(DL) Lip] His - D.homoPhe - Arg - Trp - NH2 [PIV]
Protection of treated animals (mortality) [1]: highly significant retarded mortality rate | cell proliferation of epidermis cells, mesenchymatous cells, fibroblasts (in words) [2]: no specific cell proliferation | cytotoxic effect on epidermis cells, mesenchymatous cells, fibroblasts (in words) [2]: no cytotoxic effect | differentiation and behaviour in vitro of epidermis cells, mesenchymatous cells, fibroblasts (in words) [2]: no retardation or accelaration | number of neurons and size of the cell bodies, neuroblasts (in words) [2]: no specific stimulating effect | size and spreading of epidermis cells, mesenchymatous cells, fibroblasts (in words) [2]: no stimulating effect | effect on melanocyte differentiation, dose/response trial (in words) ([2]; 0.01 μg/ml): no effect | effect on melanocyte differentiation, dose/response trial (in words) ([2]; 1 μg/ml): optimal effect | effect on melanogenesis (in words) ([2]; 0.1 and 1 μg/ml): Stimulating effect | Stimulation (melanin, treated vs control cultures) ([2]; 1st to 4th experiment): 2.5 × and 2.3 × and 1.5 × | appearance of phenotypic differentiation of the melanocytes (in words) ([2]; treated cultures, from the 2nd day after innoculation, vs control cultures): more rapidly | number of melanocytes (in words) ([2]; treated vs control cultures): increase | mean decreases in TNF-α (TNF-α; 50 μg/ml, five studies): 37% | mean decreases in TNF-α (TNF-α; 125 μg/ml, five studies): 40% | mean decreases in TNF-α (TNF-α; 200 μg/ml, five studies): 46% | mean decreases in TNF-α (TNF-α; all dosages, all the five studies): ~40% | immunosuppressive activity against Tumor Necrosis Factor-α (TNF-α; complementary study reported in Example 8): -40% | effect on precursor embryonic cells not yet determined in the melanoblastic pathway (in words) (cultured embryonic cells; 1 μg/ml): no effect | effect on the melanoblasts already induced (in words) (cultured embryonic cells; 1 μg/ml): stimulating effect | number of melanocytes increases by a factor (cultured embryonic cells; 1 μg/ml): ≥ 2 | toxic effect on astroglial cells (in words) (cultured embryonic cells; 1 μg/ml): No toxic effect | toxic effect on fibroblasts, mesenchyme (in words) (cultured embryonic cells; 1 μg/ml): no toxic effect | quantity of biosynthesized melanin per cell (cultured embryonic cells; 1 μg/ml, after eight days of culture): 1.4 ng/cell | toxic effect on myoblasts (in words) (cultured embryonic cells; 1 μg/ml, even at an ultrastructural level): no toxic effect | effect on melanogenesis, summary (in words) (cultured embryonic cells; qualitative and quantitative): stimulate melanogenesis | cytotoxic effect on the various cell categories (in words) (cultured embryonic cells; summary): no cytotoxic effect | stimulating effect on the other cell types: neurons, astrocytes, muscle cells, fibroblasts (in words) (cultured embryonic cells; summary): without stimulating effect
